Experimental data from patent US10973815B2, “Delta opioid agonist mu opioid antagonist compositions and methods for treating Parkinsons disease” (priority 2016, dated 2021).

Tests used:
[1] = system: unilateral 6-OHDA-lesioned Rats; experiment: Postural asymmetry and dyskinesia (AIMs) on repeated dosing in unilateral 6-OHDA-lesioned rats; format: in vivo, rat; conditions: 6 mg/kg i.p. daily for 15 days
[2] = system: MPTP-lesioned cynomolgus macaques; experiment: Acute DPI-289 in combination with low-dose L-DOPA, versus high-dose L-DOPA, in MPTP-lesioned macaques with L-DOPA-induced dyskinesia; format: in vivo, Macaca fascicularis; conditions: high dose L-DOPA alone (about 30 to 31 mg/kg)
Source text: This study utilized female MPTP-lesioned cynomolgus macaques that have received chronic repeat-treatment with L-DOPA and manifested stable and reproducible dyskinesia, of choreic and dystonic nature, in response to subsequent L-DOPA-treatments. Eight cynomolgus monkeys (Macaca fascicularis, 7.6-13.1 years of age, 3.0-4.5 kg) were used in this study. In a prior experiment, for each individual animal a low and high dose of L-DOPA was established such that the low dose (LD1) provided modest anti-parkinsonian action (1-2 h) and elicited predominantly non-disabling dyskinesia, the high dose (LDh) provided the best anti-parkinsonian effect achievable but also elicited disabling dyskinesia and an anti-parkinsonian benefit of 2-3 h duration
The behavioral effects of acute DPI-289 administered in combination with low-dose L-DOPA (LD1) were assessed. Also higher dose of L-DOPA was also assessed without the addition of DPI-289. The low dose (LD1) was about 10 to 11 mg/kg of L-DOPA which is considered to be sub-optimal in terms of anti-parkinsonian benefit. The dose of DPI-289 was 20 mg/kg and the high dose of L-DOPA was about 30 to 31 mg/kg and considered to an optimal does in terms of anti-parkinsonian benefit but with disabling dyskinesia. The DPI-289 was administered one (1) hour prior to the L-DOPA and start of observation. Activity counts were collected and parkinsonian disability and dyskinesia was assessed via post-hoc analysis of video-recordings by a movement disorder neurologist blinded to treatment.
On the day before behavioral observations, food was removed overnight, from 5 p.m. On days of behavioral assessment, treatment was administered to the animals in their home cage at approximately 9 a.m. A 6 h period of observation then commenced 1 h after oral dosing.
The animals were rendered parkinsonian by once daily subcutaneous injection of 0.2 mg/kg MPTP, administered for 8-12 days, until the first appearance of parkinsonism symptoms. After this time, a parkinsonian syndrome reached a moderate to marked level, over approximately 30 days, and stabilized. Additional administrations of MPTP were given to some animals to titrate to similar degrees of parkinsonism in individuals across the group. […] Sixty days after commencing MPTP administration, L-DOPA (25 mg/kg) was administered orally twice daily for at least two months. L-DOPA was given with the decarboxylase inhibitor benserazide (as Madopar™). This treatment leads to the development of motor fluctuations, including dyskinesia.

mice = conditions: cited from earlier work
[3] = system: rats treated with reserpine or dopamine receptor antagonists (haloperidol or SCH23390); conditions: 10 mg/kg i.p.; cited from earlier work
rats = conditions: cited from earlier work
MPTP-treated marmosets = conditions: similar dose levels (10 mg/kg); cited from earlier work
[4] = system: MPTP-lesioned primate (marmosets) model of Parkinson's disease; conditions: 10 mg/kg i.p.; without attenuation of the anti-parkinsonian actions of L-DOPA; cited from earlier work

In the case of `N[C@@H](Cc1ccc(O)c(O)c1)C(=O)O` [L-DOPA, reference compound], the postural asymmetry [1] is reported as “reduced or reversed the postural asymmetry”, the dyskinesia [2] is reported as “severe dyskinesia in the first three hours after dosage” and the parkinsonian disability [2] is reported as “parkinsonian disability increased in the last four to six hours”.
For `C=CCN1C[C@H](C)N([C@H](c2ccc(C(=O)N(CC)CC)cc2)c2cccc(OC)c2)C[C@H]1C` [SNC80], the convulsions (mice) is given as “seizure-like convulsions”, the “behavioral deficits (ambulatory behavior, grooming, rearing, social interaction and exploration, static investigation)” value [3] is given as “restored behavioral deficits” and the convulsions (rats) is given as “seizure-like convulsions”. For the same compound, the “motor activity, bradykinesia and disability scores” value (MPTP-treated marmosets) was “restored motor activity, bradykinesia and disability scores to normal” and the parkinsonian posture (MPTP-treated marmosets) was “not statistically reversed”.
For `COc1cccc2c1[C@]13CCN(CC4CC4)[C@H](C2)[C@]1(OC)CCC(=O)C3` [cyprodime], the L-DOPA-induced dyskinesia [4] is given as “reduce completely L-DOPA-induced dyskinesia”.
